Experimental data from ChEMBL document CHEMBL2331530, “Novel 3-O-carbamoyl erythromycin A derivatives (carbamolides) with activity against resistant staphylococcal and streptococcal isolates” (2013).
Values after ≈ are worked out from the molar mass of the structure shown.

Tests used:
Type in all cases: functional
Streptococcus pneumoniae = assay: Antibacterial activity against macrolides, lincosamides, and streptogramin B-resistant Streptococcus pneumoniae 1243-00 assessed as growth inhibition
Staphylococcus aureus [1] = assay: Antibacterial activity against Staphylococcus aureus ATCC 29213 assessed as growth inhibition
[2] = test system: Staphylococcus epidermidis; assay: Antibacterial activity against macrolides, lincosamides, streptogramin B and methicillin-resistant Staphylococcus epidermidis 1105-00 assessed as growth inhibition
Streptococcus pyogenes = assay: Antibacterial activity against macrolides, lincosamides, and streptogramin B-resistant Streptococcus pyogenes 1304-00 assessed as growth inhibition
Staphylococcus aureus [3] = assay: Antibacterial activity against methicillin-resistant Staphylococcus aureus 1279-07 harboring cfr gene assessed as growth inhibition
Staphylococcus aureus [4] = assay: Antibacterial activity against macrolides, lincosamides, streptogramin B and methicillin-resistant Staphylococcus aureus 1015-00 assessed as growth inhibition
Staphylococcus aureus [5] = assay: Antibacterial activity against methicillin-resistant Staphylococcus aureus 2111-10-USA300 harboring cfr gene assessed as growth inhibition
Staphylococcus aureus [6] = assay: Antibacterial activity against methicillin-resistant Staphylococcus aureus 1279-07-USA300 assessed as growth inhibition
Staphylococcus aureus [7] = assay: Antibacterial activity against methicillin-resistant Staphylococcus aureus 1281-07 harboring cfr gene assessed as growth inhibition
Staphylococcus aureus [8] = assay: Antibacterial activity against macrolides, lincosamides, streptogramin B and methicillin-resistant Staphylococcus aureus 1609-09 harboring cfr gene assessed as growth inhibition

Structure (SMILES) | MIC (Streptococcus pneumoniae) | MIC (Staphylococcus aureus [1]) | MIC [2] | MIC (Streptococcus pyogenes) | MIC (Staphylococcus aureus [3]) | MIC (Staphylococcus aureus [4]) | MIC (Staphylococcus aureus [5]) | MIC (Staphylococcus aureus [6]) | MIC (Staphylococcus aureus [7]) | MIC (Staphylococcus aureus [8])
CC[C@H]1OC(=O)[C@H](C)[C@@H](OC(=O)N2CC(C)(C)C[C@@H]2c2ccc(Cl)cc2)[C@H](C)[C@@H](O[C@@H]2O[C@H](C)C[C@H](N(C)C)[C@H]2O)[C@](C)(OC)C[C@@H](C)C(=O)[C@H](C)[C@H]2NC(=O)O[C@@]21C | 0.125 µg/mL (≈ 0.147 µM) | 0.25 µg/mL (≈ 0.294 µM) | 64 µg/mL (≈ 75.3 µM) | 0.125 µg/mL (≈ 0.147 µM) | 0.25 µg/mL (≈ 0.294 µM) | > 64 µg/mL | 0.25 µg/mL (≈ 0.294 µM) | 0.5 µg/mL (≈ 0.588 µM) | 0.25 µg/mL (≈ 0.294 µM) | > 64 µg/mL
CC[C@H]1OC(=O)[C@H](C)[C@@H](OC(=O)N2CCC[C@H]2c2ccccc2)[C@H](C)[C@@H](O[C@@H]2O[C@H](C)C[C@H](N(C)C)[C@H]2O)[C@](C)(OC)C[C@@H](C)C(=O)[C@H](C)[C@H]2NC(=O)O[C@@]21C | > 64 µg/mL | 2 µg/mL (≈ 2.54 µM) | > 64 µg/mL | > 64 µg/mL | > 64 µg/mL | > 64 µg/mL | 0.5 µg/mL (≈ 0.635 µM) | > 64 µg/mL | 0.5 µg/mL (≈ 0.635 µM) | > 64 µg/mL
CC[C@H]1OC(=O)[C@H](C)[C@@H](OC(=O)N2CCC[C@@H]2c2ccccc2)[C@H](C)[C@@H](O[C@@H]2O[C@H](C)C[C@H](N(C)C)[C@H]2O)[C@](C)(OC)C[C@@H](C)C(=O)[C@H](C)[C@H]2NC(=O)O[C@@]21C | > 64 µg/mL | 0.5 µg/mL (≈ 0.635 µM) | > 64 µg/mL | > 64 µg/mL | > 64 µg/mL | > 64 µg/mL | > 64 µg/mL | > 64 µg/mL | 0.25 µg/mL (≈ 0.317 µM) | > 64 µg/mL
CC[C@H]1OC(=O)[C@H](C)[C@@H](OC(=O)N2CCCC2)[C@H](C)[C@@H](O[C@@H]2O[C@H](C)C[C@H](N(C)C)[C@H]2O)[C@](C)(OC)C[C@@H](C)C(=O)[C@H](C)[C@H]2NC(=O)O[C@@]21C | 0.5 µg/mL (≈ 0.702 µM) | 4 µg/mL (≈ 5.62 µM) | 1 µg/mL (≈ 1.4 µM) | 0.5 µg/mL (≈ 0.702 µM) | 16 µg/mL (≈ 22.5 µM) | 4 µg/mL (≈ 5.62 µM) | 16 µg/mL (≈ 22.5 µM) | 2 µg/mL (≈ 2.81 µM) | 32 µg/mL (≈ 45 µM) | 16 µg/mL (≈ 22.5 µM)
CC[C@H]1OC(=O)[C@H](C)[C@@H](OC(=O)N2CC(C)(C)C[C@@H]2c2cccc(Cl)c2Cl)[C@H](C)[C@@H](O[C@@H]2O[C@H](C)C[C@H](N(C)C)[C@H]2O)[C@](C)(OC)C[C@@H](C)C(=O)[C@H](C)[C@H]2NC(=O)O[C@@]21C | 1 µg/mL (≈ 1.13 µM) | 0.5 µg/mL (≈ 0.565 µM) | 16 µg/mL (≈ 18.1 µM) | 1 µg/mL (≈ 1.13 µM) | 0.5 µg/mL (≈ 0.565 µM) | 32 µg/mL (≈ 36.2 µM) | 0.5 µg/mL (≈ 0.565 µM) | 2 µg/mL (≈ 2.26 µM) | 0.25 µg/mL (≈ 0.283 µM) | 64 µg/mL (≈ 72.3 µM)
CC[C@H]1OC(=O)[C@H](C)[C@@H](OC(=O)N2CC(C)(C)C[C@@H]2c2ccc(Cl)cc2Cl)[C@H](C)[C@@H](O[C@@H]2O[C@H](C)C[C@H](N(C)C)[C@H]2O)[C@](C)(OC)C[C@@H](C)C(=O)[C@H](C)[C@H]2NC(=O)O[C@@]21C | 0.015 µg/mL (≈ 0.017 µM) | 0.25 µg/mL (≈ 0.283 µM) | 8 µg/mL (≈ 9.04 µM) | 0.03 µg/mL (≈ 0.0339 µM) | 0.25 µg/mL (≈ 0.283 µM) | 32 µg/mL (≈ 36.2 µM) | 0.25 µg/mL (≈ 0.283 µM) | 0.5 µg/mL (≈ 0.565 µM) | 0.25 µg/mL (≈ 0.283 µM) | 64 µg/mL (≈ 72.3 µM)
CC[C@H]1OC(=O)[C@H](C)[C@@H](OC(=O)N2CC(C)(C)C[C@@H]2c2ccc(Cl)c(Cl)c2)[C@H](C)[C@@H](O[C@@H]2O[C@H](C)C[C@H](N(C)C)[C@H]2O)[C@](C)(OC)C[C@@H](C)C(=O)[C@H](C)[C@H]2NC(=O)O[C@@]21C | 0.125 µg/mL (≈ 0.141 µM) | 0.25 µg/mL (≈ 0.283 µM) | 64 µg/mL (≈ 72.3 µM) | 0.125 µg/mL (≈ 0.141 µM) | 0.25 µg/mL (≈ 0.283 µM) | 64 µg/mL (≈ 72.3 µM) | 0.25 µg/mL (≈ 0.283 µM) | 2 µg/mL (≈ 2.26 µM) | 0.25 µg/mL (≈ 0.283 µM) | 64 µg/mL (≈ 72.3 µM)
